Experimental data from ChEMBL document CHEMBL1143633, “Synthesis and cytotoxic evaluation of combretafurazans” (J Med Chem, 2005).

System: SH-SY5Y
Assay: Cytotoxicity against SH-SY5Y human neuroblastoma cell line was determined
Type: functional, cell-based

| SMILES | IC50 [nM] |
| --- | --- |
| COc1ccc(-c2nonc2-c2cc(OC)c(OC)c(OC)c2)cc1[N+](=O)[O-] | 72.5 |
| COc1ccc(C(=O)C(=O)c2cc(OC)c(OC)c(OC)c2)cc1O | 524 |
| COc1ccc(-c2nonc2-c2cc(OC)c(OC)c(OC)c2)cc1O | 1.4 |
| COc1ccc(-c2nonc2-c2cc(OC)c(OC)c(OC)c2)cc1N | 1.6 |
| COc1ccc(-c2nonc2-c2cc(OC)c(O)c(OC)c2)cc1O | 17.5 |
| COc1ccc(-c2nonc2-c2cc(OC)c(OC)c(OC)c2)cc1 | 8.9 |
| COc1ccc(-c2nonc2-c2cc(OC)c(O)c(OC)c2)cc1 | 196 |
| COc1ccc(C(=N/O)/C(=N\O)c2cc(OC)c(OC)c(OC)c2)cc1O | 254 |
| COc1ccc(/C=C\c2cc(OC)c(OC)c(OC)c2)cc1O [COMBRETASTATIN A4] | 5.8 |
